These results are taken from patent US12440519B2 (Iowa State University Research Foundation, Inc., priority 2017, dated 2025).

Series [1] has as its system L-DOPA decarboxylase. The series can be described thus: Carbidopa inhibition of dopamine production by ML1082 in sSIM. The class given is cell-based, E. faecium. Conditions: strain ML1082, sSIM. As for the experimental part:
A L-DOPA rich diet or a commonly prescribed 100 mg dose of L-DOPA would yield a concentration of about 1.0×10^−3 M concentration in sSIM. It follows then that a tablet that has 1:10 Carbidopa:L-DOPA tablet would likely result in a Carbidopa concentration of approximately 1/10th that on the order of 1.0×10^−4M (−log [Carbidopa]=4).
The IC50 was similar to the L-DOPA concentration of 1.26×10^−3 M, a finding that may indicate a competitive inhibitory mechanism for the bacterial enzyme.

The conditions of series [2]: mice, L-DOPA source in feed.
Description: Feed was prepared in one of two ways depending on the source of L-DOPA. […] For purified L-DOPA, 1 g of purified L-DOPA is mixed in a 1:200 ratio with the feed powder. The mixed feed is then added to additional feed powder in a 1:4 ratio, creating a 1 mg/g L-DOPA feed.
For the 12-day trial 10 mice were placed in each group of control mice given feed plus the PBS gavage, a probiotic supplemented diet of normal feed plus a 1×10^9 CFU gavage of ML1082, and a synbiotic diet of feed with 1 mg/g supplemented pure L-DOPA and a 1×10^9 CFU gavage of ML1082. Behavioral testing was performed on days 11 and 12 (see below), followed by sacrifice and sample collection for UHPLC-ECD as above.
The subject of series [3] is E. coli. The source says:
Although this is a well-established finding, the chemical-mechanistic effects of catecholamines on prokaryotes are relatively poorly understood. Neurochemical exposure has the potential not only to alter growth profiles and behavior, but it also appears to trigger the production of unique chemicals.

Series [4] has as its system circular muscle. The conditions noted are these: read-out: EC50, induced contractions; cited from earlier work.
In series [5] the test system is longitudinal muscle. Conditions: read-out: EC50, relaxation; cited from earlier work.
Series [6] concerns distal colon. The conditions noted are these: read-out: EC50 of maximal response; cited from earlier work.

`C[C@@](Cc1ccc(O)c(O)c1)(NN)C(=O)O` [Carbidopa]: in series [1], the “inhibition of dopamine production” value is reported as “dose-dependent inhibition”.

As to `N[C@@H](Cc1ccc(O)c(O)c1)C(=O)O` [L-DOPA, L-3,4-dihydroxyphenylalanine], the “uptake of L-DOPA into the body before conversion by the probiotic” value in series [2] was “absorbed into the body before it could interact with the probiotics”.

As usually defined, the EC50 is the concentration that produces a half-maximal response. In the case of `NCCc1ccc(O)c(O)c1` [dopamine], the “production of the dopamine-induced compound by E. coli” value in series [3] (LB supplied with dopamine, FIG. 6F) is recorded as “little if any of this compound”. The “chemical response of E. coli” value in series [3] (sSIM spiked with 0.001 M dopamine) is “novel chemical response”. Also, the EC50 in series [4] was 6.3 µM; in series [5], 29 µM; in series [6] it was 20 µM.
